Data from PMC13576449, “Small-Molecule Activators of PRMT1: Discovery, SAR Analyses, and Proapoptotic Effects in Pancreatic Cancer Cells” (Journal of Medicinal Chemistry, 2026).

Legend:
[1] = tested on: ADMA in PANC-1 xenograft tissues; assay: Immunofluorescence staining of ADMA in xenograft tumor tissue; format: in vivo, mouse; conditions: after 2 weeks treatment, compared to PBS or gemcitabine alone
Description: 6 Effect of small-molecule modulators on gemcitabine-induced apoptosis and tumor growth of PDAC cells. […] After 2 h, gemcitabine (GEM) was added at increasing concentrations (10 and 25 nM) or not (−) for another incubation of 72 h. Subsequently, the luminescence-based caspase3/7 assay was performed. The activity of caspase 3/7 in treated cells was normalized to the activity measured in untreated cells (dark gray bar), which was set to 1 (mean SD, n = 6 for PANC-1 and n = 4 for PaTu8988T; *: p ≤ 0.05, **: p ≤ 0.01, ***: p ≤ 0.001, using the student t-test). […] After 24 h, gemcitabine (GEM, 1 μM) was added (+) or not (−) for another incubation of 48 h. Subsequently, the apoptotic cell fraction was quantified in % by flow cytometry using FITC-labeled Annexin V (AV) and propidium iodide (PI) staining (in B: mean ± SD, n = 6 for PANC-1 and n = 5 for PaTu8988T; **: p ≤ 0.01, ***: p ≤ 0.001, ****: p ≤ 0.0001, using the student t-test). […] Tumor volumes were measured every second day using a digital caliper. […]
For antigen retrieval, tissue sections were steam-heated for 35 min in citrate buffer (pH 6.0), cooled down to room temperature, and then washed in PBS. […] Fluorescence images were acquired using the Confocal Laser Scanning microscope Leica SP8i and analyzed with IMARIS 9.9.0 (Bitplane-Oxford Instruments, Abingdon, GB) using the Cell module.

PaTu8988T cells = assay: CaspaseGlo 3/7 apoptosis assay, PaTu8988T; format: cell-based, human; conditions: 72 h
Description: (§1) 6 Effect of small-molecule modulators on gemcitabine-induced apoptosis and tumor growth of PDAC cells. […] After 2 h, gemcitabine (GEM) was added at increasing concentrations (10 and 25 nM) or not (−) for another incubation of 72 h. Subsequently, the luminescence-based caspase3/7 assay was performed. The activity of caspase 3/7 in treated cells was normalized to the activity measured in untreated cells (dark gray bar), which was set to 1 (mean SD, n = 6 for PANC-1 and n = 4 for PaTu8988T; *: p ≤ 0.05, **: p ≤ 0.01, ***: p ≤ 0.001, using the student t-test). […] After 24 h, gemcitabine (GEM, 1 μM) was added (+) or not (−) for another incubation of 48 h. Subsequently, the apoptotic cell fraction was quantified in % by flow cytometry using FITC-labeled Annexin V (AV) and propidium iodide (PI) staining (in B: mean ± SD, n = 6 for PANC-1 and n = 5 for PaTu8988T; **: p ≤ 0.01, ***: p ≤ 0.001, ****: p ≤ 0.0001, using the student t-test). […] Viable cells are AV/PI double-negative (AV–/PI–, lower left quadrant, Q4), early apoptotic cells are AV single-positive (AV+/PI– upper left quadrant, Q1), late apoptotic cells are AV/PI double-positive (AV+/PI+, upper right quadrant, Q2), and necrotic cells are PI single-positive (AV–/PI+, lower right quadrant, Q3). The sum of early and late apoptotic cell numbers ([…] in %) is indicated in red. D-G: The workflow of the PDAC xenograft experiments in mice is depicted in D. PANC-1 cells (2 × 10^6 cells/mouse) were subcutaneously (s.c.) injected in the right flank of female athymic nude mice. Small tumor nodules appeared 6 days post-engraftment. […] Tumor volumes were measured every second day using a digital caliper. […] At the end of the 2 weeks, mice were sacrificed and tumors were dissected (F).
(§2) For quantification of apoptosis using the CaspaseGlo 3/7 assay (Promega), PANC-1 and PaTu8988T cells were seeded in triplicates in white 96-well plate (5 × 10^3 cells/well) and cultured in the absence or presence of compounds. After 2 h, as soon as the cells had settled, gemcitabine was added or not, and cells were incubated for another 72 h. Subsequently, the caspase3/7 activity was measured using the luminescence-based CaspaseGLO-3/7 assay (Promega). To this end, the CaspaseGlo reagent was subsequently added to the cells at a 1:1 ratio and incubated at room temperature and under agitation for 30 min protected from light. The luminescence measurements were carried out using a microplate reader (Mithras LB 940, Berthold).

PANC-1 cells = assay: CaspaseGlo 3/7 apoptosis assay, PANC-1; format: cell-based, human; conditions: 72 h
Description: as §1, §2

PANC-1 xenografts = assay: PDAC xenograft mouse model, tumor growth; format: in vivo; conditions: female athymic nude mice, intraperitoneal, 2 weeks; 150 mg/kg TR-07 daily, 10 mg/kg gemcitabine every second day; n = 5
[2] = TR-07 10 μM or gemcitabine 10 and 25 nM
[3] = compound 10 μM, after 2 h gemcitabine 10 and 25 nM

CN(C)Cc1cccc(CN/C=C2\C(=O)NC(=O)c3ccccc32)c1.Cl [TR-07, (Z)-1-[3-({[(1,3-Dioxo-2,3-dihydroisoquinolin-4(1H)-lidene)methyl]amino}methyl)phenyl]-N,N-dimethylmethanaminium chloride]
mean intensity ADMA levels in PANC-1 xenografts (IF staining) [1]: elevated mean intensity ADMA levels | apoptosis, caspase 3/7 activity, single agent (PaTu8988T cells; [2]): did not significantly induce apoptosis | gemcitabine-induced apoptosis, caspase 3/7 activity, co-treatment (PaTu8988T cells; [3]): further significantly enhanced | apoptosis, caspase 3/7 activity, single agent (PANC-1 cells; [2]): did not significantly induce apoptosis | gemcitabine-induced apoptosis, caspase 3/7 activity, co-treatment (PANC-1 cells; [3]): further significantly enhanced | tumor growth of PANC-1 xenografts (PANC-1 xenografts): significantly reduced the tumor growth compared to the control mice
